In US7192906B2, “Substituted pyrazole derivatives, production process thereof, and herbicide compositions containing the derivatives” (SDS Biotech K.K., priority 2001, dated 2007):

Legend:
Type in all cases: in vivo
[1] = tested on: Rice (Oryza sativa); test: Test Example 3 paddy field treatment, crop phytotoxicity; details: Table 6, paddy field treatment, transplanted rice, active ingredient 1 kg per hectare, 21st day after dropping, index 0-5
Method in brief: (§1)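 Scoring used a 0–5 scale of herbicidal effect or phytotoxicity, from <10% to ≥90%, taken 21 days after treatment. Treatment was 1 kg a.i./ha as diluted wettable powder dripped onto 4 cm-deep flooded pots sown with the weeds, 10 days after transplanting two-leaf Koshihikari rice.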

[2] = tested on: Monochoria vaginalis; test: Test Example 3 paddy field treatment; details: Table 6, paddy field treatment, active ingredient 1 kg per hectare, 21st day after dropping, index 0-5
Method in brief: as §1

[3] = tested on: Ammannia multiflora; test: Test Example 3 paddy field treatment; details: Table 6, paddy field treatment, active ingredient 1 kg per hectare, 21st day after dropping, index 0-5
Method in brief: as §1

[4] = tested on: Scirpus juncoides; test: Test Example 3 paddy field treatment; details: Table 6, paddy field treatment, active ingredient 1 kg per hectare, 21st day after dropping, index 0-5
Method in brief: as §1

[5] = tested on: Echinochloa crusgalli; test: Test Example 3 paddy field treatment; details: Table 6, paddy field treatment, active ingredient 1 kg per hectare, 21st day after dropping, index 0-5
Method in brief: as §1

[6] = tested on: Digitaria adscendens; test: Test Example 1 upland field foliage treatment; details: Table 4, upland field foliage treatment, index 0-5
Method in brief: (§2)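 Scored 0–5 (0: under 10%, 5: 90% or more effect or phytotoxicity) on day 21 after treatment; plants sown in upland soil received a leaf-surface spray 14 days post-sowing of diluted wettable powder delivering 1 kg active ingredient/ha.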

[7] = tested on: Chenopodium album; test: Test Example 1 upland field foliage treatment; details: Table 4, upland field foliage treatment, index 0-5
Method in brief: as §2

[8] = tested on: Setaria viridis; test: Test Example 1 upland field foliage treatment; details: Table 4, upland field foliage treatment, index 0-5
Method in brief: as §2

[9] = tested on: Stellaria media; test: Test Example 1 upland field foliage treatment; details: Table 4, upland field foliage treatment, index 0-5
Method in brief: as §2

[10] = tested on: soybean (Glycine max); test: Test Example 1 upland field foliage treatment, crop phytotoxicity; details: Table 4, upland field foliage treatment, index 0-5
Method in brief: as §2

[11] = tested on: wheat (Triticum aestivum); test: as above; details: Table 4, upland field foliage treatment, index 0-5
Method in brief: as §2

[12] = tested on: soybean (Glycine max); test: Test Example 2 upland soil treatment, crop phytotoxicity; details: Table 5, upland soil treatment, index 0-5
Method in brief: (§3)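 Pre-emergence soil treatment: seeds sown in upland soil in pots and covered with about 1 cm soil. Next day, a water-diluted wettable powder was sprayed evenly on the soil surface at 1 kg active ingredient per hectare. Weed control or crop injury was scored 0–5 (10% to ≥90% bands) 21 days later.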

[13] = tested on: wheat (Triticum aestivum); test: as above; details: Table 5, upland soil treatment, index 0-5
Method in brief: as §3

[14] = tested on: Digitaria adscendens; test: Test Example 2 upland soil treatment; details: Table 5, upland soil treatment, index 0-5
Method in brief: as §3

[15] = tested on: Chenopodium album; test: Test Example 2 upland soil treatment; details: Table 5, upland soil treatment, index 0-5
Method in brief: as §3

[16] = tested on: Setaria viridis; test: Test Example 2 upland soil treatment; details: Table 5, upland soil treatment, index 0-5
Method in brief: as §3

[17] = tested on: Stellaria media; test: Test Example 2 upland soil treatment; details: Table 5, upland soil treatment, index 0-5
Method in brief: as §3

Structure (SMILES) | Herbicidal activity (phytotoxicity) OS [1] | Herbicidal activity MV [2] | Herbicidal activity AM [3] | Herbicidal activity SJ [4] | Herbicidal activity EC [5] | Herbicidal activity DA: Digitaria adscendens [6] | Herbicidal activity CA: Chenopodium album [7] | Herbicidal activity SV: Setaria viridis [8] | Herbicidal activity SM: Stellaria media [9] | Herbicidal activity (phytotoxicity) GM: Soybean (Glycine max) [10] | Herbicidal activity (phytotoxicity) TA: Wheat (Triticum aestivum) [11] | Herbicidal activity (phytotoxicity) GM: Soybean (Glycine max) [12] | Herbicidal activity (phytotoxicity) TA: Wheat (Triticum aestivum) [13] | Herbicidal activity DA: Digitaria adscendens [14] | Herbicidal activity CA: Chenopodium album [15] | Herbicidal activity SV: Setaria viridis [16] | Herbicidal activity SM: Stellaria media [17]
CNC(=O)C(Cn1cc(C)c(-c2ccc(F)c(OC)c2)n1)=NOC [Compound 77] | 0 (herbicidal effect of not less than 0% and less than 10%, or phytotoxicity of 0% or more and less than 10%) | 5 (herbicidal effect of not less than 90%, or phytotoxicity of 90% or more) | 5 (herbicidal effect of not less than 90%, or phytotoxicity of 90% or more) | 5 (herbicidal effect of not less than 90%, or phytotoxicity of 90% or more) | 5 (herbicidal effect of not less than 90%, or phytotoxicity of 90% or more) | 5 (herbicidal effect of not less than 90%, or phytotoxicity of 90% or more) | 5 (herbicidal effect of not less than 90%, or phytotoxicity of 90% or more) | 3 (herbicidal effect of not less than 50% and less than 70%, or phytotoxicity of 50% or more and less than 70%) | 3 (herbicidal effect of not less than 50% and less than 70%, or phytotoxicity of 50% or more and less than 70%) | 0 (herbicidal effect of not less than 0% and less than 10%, or phytotoxicity of 0% or more and less than 10%) | 0 (herbicidal effect of not less than 0% and less than 10%, or phytotoxicity of 0% or more and less than 10%) | 0 (herbicidal effect of not less than 0% and less than 10%, or phytotoxicity of 0% or more and less than 10%) | 0 (herbicidal effect of not less than 0% and less than 10%, or phytotoxicity of 0% or more and less than 10%) | 5 (herbicidal effect of not less than 90%, or phytotoxicity of 90% or more) | 5 (herbicidal effect of not less than 90%, or phytotoxicity of 90% or more) | 4 (herbicidal effect of not less than 70% and less than 90%, or phytotoxicity of 70% or more and less than 90%) | 5 (herbicidal effect of not less than 90%, or phytotoxicity of 90% or more)
CNC(=O)C(Cn1cc(C)c(-c2ccccc2)n1)=NOCF [Compound 103] | 0 (herbicidal effect of not less than 0% and less than 10%, or phytotoxicity of 0% or more and less than 10%) | 5 (herbicidal effect of not less than 90%, or phytotoxicity of 90% or more) | 5 (herbicidal effect of not less than 90%, or phytotoxicity of 90% or more) | 5 (herbicidal effect of not less than 90%, or phytotoxicity of 90% or more) | 5 (herbicidal effect of not less than 90%, or phytotoxicity of 90% or more) | 4 (herbicidal effect of not less than 70% and less than 90%, or phytotoxicity of 70% or more and less than 90%) | 5 (herbicidal effect of not less than 90%, or phytotoxicity of 90% or more) | 3 (herbicidal effect of not less than 50% and less than 70%, or phytotoxicity of 50% or more and less than 70%) | 5 (herbicidal effect of not less than 90%, or phytotoxicity of 90% or more) | 0 (herbicidal effect of not less than 0% and less than 10%, or phytotoxicity of 0% or more and less than 10%) | 0 (herbicidal effect of not less than 0% and less than 10%, or phytotoxicity of 0% or more and less than 10%) | 0 (herbicidal effect of not less than 0% and less than 10%, or phytotoxicity of 0% or more and less than 10%) | 0 (herbicidal effect of not less than 0% and less than 10%, or phytotoxicity of 0% or more and less than 10%) | 5 (herbicidal effect of not less than 90%, or phytotoxicity of 90% or more) | 5 (herbicidal effect of not less than 90%, or phytotoxicity of 90% or more) | 4 (herbicidal effect of not less than 70% and less than 90%, or phytotoxicity of 70% or more and less than 90%) | 5 (herbicidal effect of not less than 90%, or phytotoxicity of 90% or more)
CON=C(Cn1cc(C)c(-c2ccccc2)n1)C(=O)N1CCSCC1 [Compound 122] | 0 (herbicidal effect of not less than 0% and less than 10%, or phytotoxicity of 0% or more and less than 10%) | 4 (herbicidal effect of not less than 70% and less than 90%, or phytotoxicity of 70% or more and less than 90%) | 4 (herbicidal effect of not less than 70% and less than 90%, or phytotoxicity of 70% or more and less than 90%) | 3 (herbicidal effect of not less than 50% and less than 70%, or phytotoxicity of 50% or more and less than 70%) | 4 (herbicidal effect of not less than 70% and less than 90%, or phytotoxicity of 70% or more and less than 90%) | 4 (herbicidal effect of not less than 70% and less than 90%, or phytotoxicity of 70% or more and less than 90%) | 4 (herbicidal effect of not less than 70% and less than 90%, or phytotoxicity of 70% or more and less than 90%) | 4 (herbicidal effect of not less than 70% and less than 90%, or phytotoxicity of 70% or more and less than 90%) | 4 (herbicidal effect of not less than 70% and less than 90%, or phytotoxicity of 70% or more and less than 90%) | 0 (herbicidal effect of not less than 0% and less than 10%, or phytotoxicity of 0% or more and less than 10%) | 0 (herbicidal effect of not less than 0% and less than 10%, or phytotoxicity of 0% or more and less than 10%) | 0 (herbicidal effect of not less than 0% and less than 10%, or phytotoxicity of 0% or more and less than 10%) | 0 (herbicidal effect of not less than 0% and less than 10%, or phytotoxicity of 0% or more and less than 10%) | 3 (herbicidal effect of not less than 50% and less than 70%, or phytotoxicity of 50% or more and less than 70%) | 4 (herbicidal effect of not less than 70% and less than 90%, or phytotoxicity of 70% or more and less than 90%) | 3 (herbicidal effect of not less than 50% and less than 70%, or phytotoxicity of 50% or more and less than 70%) | 4 (herbicidal effect of not less than 70% and less than 90%, or phytotoxicity of 70% or more and less than 90%)
